Test results published in US11053259B2, “Crystal of cephalosporin intermediate 7α-methoxy cephalothin and method for preparing same” (QILU ANTIBIOTICS PHARMACEUTICAL CO. LTD., priority 2017, dated 2021).
Structures can show the parent of a compound that is named as a salt.

What was measured:
[1] = 6-month accelerated comparative study on stability; assay type: physicochemical; settings: for Appearance / Content / Moisture: 25° C. and RH of 60%
[2] = hygroscopicity and storage stability of the cyclohexylamine salt (statement on existing technology); assay type: physicochemical

Row | SMILES | Appearance ([1]; Month 0) | Content ([1]; Month 0) | Moisture ([1]; Month 0) | Appearance ([1]; Month 1) | Content ([1]; Month 1) | Moisture ([1]; Month 1) | Appearance ([1]; Month 2) | Content ([1]; Month 2) | Moisture ([1]; Month 2) | Appearance ([1]; Month 3) | Content ([1]; Month 3) | Moisture ([1]; Month 3) | Appearance ([1]; Month 6) | Content ([1]; Month 6) | Moisture ([1]; Month 6) | hygroscopicity [2] | stability of appearance, hygroscopicity and content (overall result in words) ([1]; 6-month accelerated testing) | storage stability [2]
1 | CO[C@@]1(NC(=O)Cc2cccs2)C(=O)N2C(C(=O)O)=C(COC(C)=O)CS[C@@H]21 [Cyclohexylamine Salt of 7α-Methoxy Cephalothin] | Off-white | 78.4% | 0.13% | Light | 77.5% | 0.87% | Yellow | 76.3% | 1.56% | Yellow | 75.1% | 1.84% | Earthy | 72.4% | 2.55% | strong hygroscopicity | – | –
2 | CO[C@@]1(NC(=O)Cc2cccs2)C(=O)N2C(C(=O)O)=C(COC(C)=O)CS[C@@H]21 [listing 1 of 2 here] | – | – | – | – | – | – | – | – | – | – | – | – | – | – | – | – | better purity and quality stability | –
3 | CO[C@@]1(NC(=O)Cc2cccs2)C(=O)N2C(C(=O)O)=C(COC(C)=O)CS[C@@H]21 [listing 2 of 2 here] | – | – | – | – | – | – | – | – | – | – | – | – | – | – | – | – | – | poor storage stability
4 | CO[C@@]1(NC(=O)Cc2cccs2)C(=O)N2C(C(=O)O)=C(COC(C)=O)CS[C@@H]21 [Crystal of 7α-Methoxy Cephalothin, (6R, 7S)-3-acetyloxymethyl-7-methoxy-8-oxo-7-[2-(2-thienyl)acetamido]-5-thia-1-nitrobicyclo [4.2.0] oct-2-ene-2-carboxylic acid] | Off-white | 98.2% | 0.26% | Off-white | 98.2% | 0.27% | Off-white | 98.1% | 0.27% | Off-white | 98.1% | 0.29% | Off-white | 97.9% | 0.28% | – | – | –
